The text below walks through data of patent US20230158049A1, “COMPOSITIONS AND METHODS FOR TREATING VIRUSES” (University of Virginia Patent Foundation, priority 2020, published 2023).

Data set [1] concerns SARS-CoV-2.
Data set [2] concerns the target 3C-like main protease (3CLpro) or Nsp5 (Severe acute respiratory syndrome coronavirus 2, UniProt P0DTD1). The settings on record: computational screening (Wu et al.); cited from earlier work.
Where [3] appears, read: four patients, 100 mg twice daily or daily.

In the case of `CC[C@H]1OC(=O)[C@H](C)[C@@H](O[C@H]2C[C@@](C)(OC)[C@@H](O)[C@H](C)O2)[C@H](C)[C@@H](O[C@@H]2O[C@H](C)C[C@H](N(C)C)[C@H]2O)[C@](C)(O)C[C@@H](C)CN(C)[C@H](C)[C@@H](O)[C@]1(C)O` [azithromycin], the “clinical course on azithromycin before the switch to doxycycline” value in data set [1] (Example 4 (case 4): hospital days 1-3, with ceftriaxone) was “several days of worsening”.

Turning to `C[C@H]1c2cccc(O)c2C(=O)C2=C(O)[C@]3(O)C(=O)C(C(N)=O)=C(O)[C@@H](N(C)C)[C@@H]3[C@@H](O)[C@@H]21` [doxycycline], in data set [1] (Example 2: after 3 weeks), the “retesting for SARS-CoV-2” value is given as “negative”. Further, in data set [1] (Example 2: person, pulmonary sarcoidosis, doxycycline 100 mg orally twice a day for 10 days), the “clinical course (fever, symptoms)” value is “Fever resolved and they remained asymptomatic”. Besides, in data set [1] (Example 3: on 9 May 2020), the “repeat nasopharyngeal swab testing for SARS-CoV-2 RNA” value is reported as “negative”. For the same molecule, the “lung infiltrates on chest X-ray” value in data set [1] (Example 4: after 14 days of doxycycline therapy) is given as “resolved”. Moreover, in data set [1] (Example 4: by day 8 (CRP 13 by day 3, before doxycycline)), the CRP was determined as 1.0. Further, in data set [1] (Example 4: person, doxycycline 100 mg twice daily from hospital day 4, by day 8), the supplemental oxygen requirement result is “no longer required oxygen”. Also, in data set [1] (setting [3]), the “overall clinical outcome of the four patients” value is “All improved” and the “progression to severe disease” value was “None progressed to severe disease”. In addition, in data set [1] (four patients, standard doses for 5 to 14 days), the “safety issues with use” value is listed as “No safety issues were noted”. In addition, in data set [2], the “3CLpro binding by computational screening” value is “can bind to 3CLpro”.
